Data on 4 compounds can be found in EP0293814A1, “Mono- and polyhydroxyacyl derivatives of polyoxygenated labdanes, a process for their production and their use as drugs” (HOECHST AKTIENGESELLSCHAFT, priority 1987, dated 1988).

This experiment is described as follows: Lowering of intraocular pressure, Schiotz tonometry. The experiment is classed as in vivo. The text has this:
Die Labdane der vorliegenden Anmeldung eignen sich zur Behandlung des erhöhten Augeninnendrucks, weil sie, wie mit der Schiotz-Tonometrie nachgewiesen, die Eigenschaft besitzen, den Augeninnendruck herabzusetzen (s. Capriol. J., Sears, M., Lancet, 1, (1983) 958 - 96).
Die Wirksamkeit einiger repräsentativer Verbindungen gemäß der Erfindung ist als prozentuale Senkung des Augeninnendrucks ausgedrückt und in Tab. 2 dargestellt.

SMILES strings stand for the structures.

For the compound `C=C[C@@]1(C)CC(=O)[C@]2(O)[C@@]3(C)[C@@H](O)CCC(C)(C)[C@@H]3[C@H](O)[C@H](OC(=O)COCC)[C@@]2(C)O1` [compound 1], the “Senkung des Augeninnendrucks (%)” value (Konzentration 2 %) is given as 31%.

For the compound `C=C[C@@]1(C)CC(=O)[C@]2(O)[C@@]3(C)[C@@H](OC(=O)COC=O)CCC(C)(C)[C@@H]3[C@H](O)[C@H](OC(=O)COC=O)[C@@]2(C)O1` [compound 5], the “Senkung des Augeninnendrucks (%)” value (Konzentration 2 %) was found to be 26%.

Consider `C=C[C@@]1(C)CC(=O)[C@]2(O)[C@@]3(C)[C@@H](O)CCC(C)(C)[C@@H]3[C@H](OC(=O)COCC)[C@H](O)[C@@]2(C)O1` [compound 2], for which the “Senkung des Augeninnendrucks (%)” value (Konzentration 2 %) was determined as 20%.

For `C=C[C@@]1(C)CC(=O)[C@]2(O)[C@@]3(C)[C@@H](O)CCC(C)(C)[C@@H]3[C@H](O)[C@H](OC(=O)[C@H](O)CO)[C@@]2(C)O1` [compound 7], the “Senkung des Augeninnendrucks (%)” value came out at 17% (Konzentration 0,1 %), 25% (Konzentration 0,5 %), 24% (Konzentration 0,25 %) and 27% (Konzentration 2 %). Besides, the “Erniedrigung des Augeninnendrucks” value (in words, compared with the other substances of the invention (Tab. 2)) is recorded as “wesentlich besser erniedrigt als die anderen Substanzen der Erfindung”.
